Test: xn = mol fraction of the nth substance listed

ClC(Cl)=C(Cl)Cl + O=[N+]([O-])c1ccccc1
303.15 K, 101 kPa
Details	viscosity [mPa·s]
x1 = 0.1516	1.446
x1 = 0.2128	1.376
x1 = 0.2966	1.288
x1 = 0.3642	1.221
x1 = 0.4582	1.144
x1 = 0.5496	1.074
x1 = 0.6451	1.012
x1 = 0.7624	0.941
x1 = 0.8428	0.896
x1 = 0.9206	0.856

C1CCC2CCCCC2C1 (configuration not stated) + OCC1CC1
viscosity [mPa·s], 101 kPa
Details	x2 = 0.0988	x2 = 0.2017	x2 = 0.2994	x2 = 0.4008	x2 = 0.5004	x2 = 0.6011	x2 = 0.7007	x2 = 0.8009	x2 = 0.8994
293.15 K	2.377	2.408	2.471	2.554	2.676	2.846	3.024	3.244	3.581
298.15 K	2.149	2.17	2.217	2.282	2.378	2.517	2.662	2.84	3.12
303.15 K	1.952	1.965	2.001	2.05	2.126	2.24	2.356	2.502	2.736
308.15 K	1.781	1.787	1.814	1.85	1.91	2.003	2.097	2.215	2.411
313.15 K	1.63	1.633	1.651	1.678	1.724	1.799	1.874	1.971	2.135
318.15 K	1.499	1.497	1.509	1.527	1.562	1.623	1.683	1.762	1.899
323.15 K	1.382	1.358	1.383	1.396	1.421	1.47	1.518	1.581	1.697

CC12CC3CC(C)(C1)CC(C)(C3)C2 + OCC1CCCCC1
Details	viscosity [mPa·s]
303.15 K, 100 kPa, x2 = 0.801	10.65

CCCCCO + OCCO
293.15 K, 101.33 kPa
Details	viscosity [mPa·s]
x2 = 0.0857	4.274
x2 = 0.1963	4.916
x2 = 0.2991	5.66
x2 = 0.3697	6.324
x2 = 0.4694	7.484
x2 = 0.5395	8.676
x2 = 0.5964	9.655
x2 = 0.713	12.32
x2 = 0.7884	14.03
x2 = 0.8506	15.9
x2 = 0.9407	18.94

O=[N+]([O-])c1ccccc1 + OCCOCCO
viscosity [mPa·s], 101 kPa
Details	298.15 K	308.15 K
x2 = 0.0441	1.987	1.691
x2 = 0.1493	2.565	2.115
x2 = 0.2505	3.312	2.642
x2 = 0.3502	4.303	3.31
x2 = 0.4438	5.55	4.117
x2 = 0.4934	6.373	4.632
x2 = 0.5487	7.457	5.293
x2 = 0.6506	10.04	6.804
x2 = 0.751	13.58	8.774
x2 = 0.8498	18.47	11.34
x2 = 0.9429	24.89	14.54

O=[N+]([O-])c1ccccc1 + OCCOCCOCCO
viscosity [mPa·s], 101 kPa
Details	298.15 K	308.15 K
x2 = 0.0465	2.086	1.759
x2 = 0.1495	2.91	2.342
x2 = 0.2501	3.999	3.087
x2 = 0.3505	5.455	4.049
x2 = 0.4432	7.222	5.184
x2 = 0.4957	8.443	5.954
x2 = 0.5486	9.864	6.838
x2 = 0.6486	13.17	8.857
x2 = 0.7501	17.53	11.47
x2 = 0.8489	23	14.69
x2 = 0.94	29.37	18.4

CC12CC3CC(C)(C1)CC(C)(C3)C2 + c1ccc2c(c1)CCCC2
viscosity [mPa·s], 100 kPa
Details	x1 = 0.1006	x1 = 0.2003	x1 = 0.2993	x1 = 0.4002	x1 = 0.4993	x1 = 0.6013	x1 = 0.7012	x1 = 0.8008	x1 = 0.9005
293.15 K	2.14	2.1	2.1	2.12	2.16	2.22	2.29	2.38	2.5
298.15 K	1.93	1.9	1.9	1.92	1.95	2	2.07	2.15	2.25
303.15 K	1.76	1.73	1.73	1.75	1.78	1.82	1.88	1.95	2.04
308.15 K	1.61	1.59	1.59	1.6	1.62	1.67	1.72	1.78	1.85
313.15 K	1.48	1.46	1.46	1.47	1.49	1.53	1.57	1.63	1.7
318.15 K	1.37	1.35	1.35	1.36	1.38	1.41	1.45	1.5	1.56
323.15 K	1.26	1.25	1.25	1.26	1.28	1.31	1.34	1.39	1.44

CCCCCO + c1ccccc1
Details	viscosity [mPa·s]
293.15 K, 101.33 kPa, x1 = 0.0659	0.671
293.15 K, 101.33 kPa, x1 = 0.1351	0.715
293.15 K, 101.33 kPa, x1 = 0.218	0.791
293.15 K, 101.33 kPa, x1 = 0.2928	0.876
293.15 K, 101.33 kPa, x1 = 0.4304	1.127
293.15 K, 101.33 kPa, x1 = 0.5061	1.307
293.15 K, 101.33 kPa, x1 = 0.58	1.532
293.15 K, 101.33 kPa, x1 = 0.6971	2.016
293.15 K, 101.33 kPa, x1 = 0.729	2.159
293.15 K, 101.33 kPa, x1 = 0.8032	2.568
293.15 K, 101.33 kPa, x1 = 0.8704	3.014
293.15 K, 101.33 kPa, x1 = 0.9454	3.594
298.15 K, 101 kPa, x1 = 0.04	0.616
298.15 K, 101 kPa, x1 = 0.09	0.641
298.15 K, 101 kPa, x1 = 0.14	0.669
298.15 K, 101 kPa, x1 = 0.18	0.709
298.15 K, 101 kPa, x1 = 0.37	0.936
298.15 K, 101 kPa, x1 = 0.47	1.132
298.15 K, 101 kPa, x1 = 0.57	1.36
298.15 K, 101 kPa, x1 = 0.78	1.963

Source: the CheMixHub viscosity set
